The results in this text go back to patent US20240327393A1 (SIRONAX LTD., priority 2021, published 2024).

The subject of this assay is HT-1080 (ATCC, CCL-121) cells. Briefly: HT-1080 cell viability assay with ferroptosis inducer RSL3 (Cell Titer-Glo). In kind it is cell-based. The settings on record: Homo sapiens; HT-1080 cells treated with RSL3; 3-fold, 10-point dilution, 1.1 μM highest concentration; Table 2; read-out: EC50 (nM), ferroptosis inhibitory activity. A digest of the protocol: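 HT-1080 cells (6000 per well) were cultured overnight at 37 °C, then co-treated with RSL3 and compound in a 3-fold, 10-point series topping at 1.1 μM. Viability was read by CellTiter-Glo luminescence and normalized to untreated controls. EC50 came from a sigmoidal non-linear regression fit.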
Take `CN1CCc2cc(Nc3ccc4c(c3)n(C)c(=O)n4C)ccc21` [Compound 289, 1,3-dimethyl-5-((1-methylindolin-5-yl)amino)-1,3-dihydro-2H-benzo[d]imidazol-2-one]: the EC50 is 0.1 to 100 nM.

In the case of `C#Cc1ccc(Nc2ccc3c(c2)n(C)c(=O)n3C)cc1` [Compound 290, 5-((4-ethynylphenyl)amino)-1,3-dimethyl-1,3-dihydro-2H-benzo[d]imidazol-2-one], the EC50 was in the range of 0.1 to 100 nM.

`CN1Cc2cc(Nc3ccc(N4CCC(C(F)(F)F)CC4)cc3)ccc2C1=N` [Compound 291, 1-imino-2-methyl-N-(4-(4-(trifluoromethyl)piperidin-1-yl)phenyl) isoindolin-5-amine]: the EC50 is 0.1 to 100 nM.

Take `Cn1c(=O)n(C)c2cc(Nc3ccc(C(=O)N4CCCC4)cc3)ccc21` [Compound 292, 1,3-dimethyl-5-((4-(pyrrolidine-1-carbonyl)phenyl)amino)-1,3-dihydro-2H-benzo[d]imidazol-2-one]: the EC50 lay in the range of 1000 to 10000 nM.

In the case of `CN1C(=O)C(C)(C)c2cc(Nc3ccc(N4CCC(C(F)(F)F)CC4)cc3)ccc21` [Compound 293, 1,3,3-trimethyl-5-((4-(4-(trifluoromethyl)piperidin-1-yl)phenyl)amino)indolin-2-one], the EC50 is 0.1 to 100 nM.

For the molecule `CC1CCN(c2ccc(Nc3ccc4c(c3)CN(C)C4=N)cc2)CC1` [Compound 294, 1-imino-2-methyl-N-(4-(4-methylpiperidin-1-yl)phenyl)isoindolin-5-amine], the EC50 lay in the range of 0.1 to 100 nM.

With `Cn1c(=O)n(C)c2cc(Nc3ccc(CN4CCCC4)cc3)ccc21` [Compound 295, 1,3-dimethyl-5-((4-(pyrrolidin-1-ylmethyl)phenyl)amino)-1,3-dihydro-2H-benzo[d]imidazol-2-one], the EC50 fell in the range of 1000 to 10000 nM.

For the molecule `CCCCCOc1ccc(Nc2ccc3c(c2)n(C)c(=O)n3C)cc1OC` [Compound 296, 5-((3-methoxy-4-(pentyloxy)phenyl)amino)-1,3-dimethyl-1,3-dihydro-2H-benzo[d]imidazol-2-one], the EC50 was in the range of 0.1 to 100 nM.

For `Cn1c(=O)n(C)c2cc(Nc3ccc(N4CCC(F)(F)CC4)cc3)ccc21` [Compound 297, 5-((4-(4,4-difluoropiperidin-1-yl)phenyl)amino)-1,3-dimethyl-1,3-dihydro-2H-benzo[d]imidazol-2-one], the EC50 lay within 0.1 to 100 nM.

`CC1CCN(c2ccc(Nc3ccc4c(c3)n(C)c(=O)n4C)cc2Cl)CC1` [Compound 298, 5-((3-chloro-4-(4-methylpiperidin-1-yl)phenyl)amino)-1,3-dimethyl-1,3-dihydro-2H-benzo[d]imidazol-2-one]: the half-maximal effective concentration (EC50) lay in the range of 0.1 to 100 nM.

Consider `Cn1c(=O)n(C)c2cc(Nc3ccc(N4CCC(F)CC4)cc3)ccc21` [Compound 299, 5-((4-(4-fluoropiperidin-1-yl)phenyl)amino)-1,3-dimethyl-1,3-dihydro-2H-benzo[d]imidazol-2-one], for which the EC50 is 0.1 to 100 nM.

As for `Cn1nnc2cc(Nc3ccc(N4CCC(C(F)(F)F)CC4)cc3)ccc21` [Compound 300, 1-methyl-N-(4-(4-(trifluoromethyl)piperidin-1-yl)phenyl)-1H-benzo[d][1,2,3]triazol-5-amine], the EC50 was 0.1 to 100 nM.

For the molecule `COc1c(Nc2ccc(N3CCC(C(F)(F)F)CC3)cc2)ccc2c1CN(C)C2=O` [Compound 301, 4-methoxy-2-methyl-5-((4-(4-(trifluoromethyl)piperidin-1-yl)phenyl)amino)isoindolin-1-one], the EC50 was in the range of 0.1 to 100 nM.

In the case of `Cn1c(=N)n(C)c2cc(Nc3ccc(N4CCC(C(F)(F)F)CC4)cc3)ccc21` [Compound 302, 2-imino-1,3-dimethyl-N-(4-(4-(trifluoromethyl)piperidin-1-yl)phenyl)-2,3-dihydro-1H-benzo[d]imidazol-5-amine], the EC50 fell in the range of 0.1 to 100 nM.

For the molecule `CN1Cc2cc(Nc3ccc(N4CCCCC4)c(N(C)C)c3)ccc2C1=O` [Compound 303, 5-((3-(dimethylamino)-4-(piperidin-1-yl)phenyl)amino)-2-methylisoindolin-1-one], the EC50 was 0.1 to 100 nM.

Regarding `CN(C)c1cc(Nc2ccc3c(=O)n(C)[nH]c3c2)ccc1N1CCCCC1` [Compound 304, 6-((3-(dimethylamino)-4-(piperidin-1-yl)phenyl)amino)-2-methyl-1,2-dihydro-3H-indazol-3-one], the EC50 lay in the range of 0.1 to 100 nM.

Turning to `Cn1c(=O)n(C)c2cc(Nc3ccc(-n4ccnc4)cc3)ccc21` [Compound 305, 5-((4-(1H-imidazol-1-yl)phenyl)amino)-1,3-dimethyl-1,3-dihydro-2H-benzo[d]imidazol-2-one], the EC50 was in the range of 100 to 1000 nM.

`CCOC(=O)c1ccc(Nc2ccc3c(c2)n(C)c(=O)n3C)cc1` [Compound 306, ethyl 4-((1,3-dimethyl-2-oxo-2,3-dihydro-1H-benzo[d]imidazol-5-yl)amino)benzoate]: the EC50 lay within 100 to 1000 nM.

Regarding `Cn1c(=O)n(C)c2cc(Nc3ccc4c(c3)OCCO4)ccc21` [Compound 307, 5-((2,3-dihydrobenzo[b][1,4]dioxin-6-yl)amino)-1,3-dimethyl-1,3-dihydro-2H-benzo[d]imidazol-2-one], the EC50 lay in the range of 100 to 1000 nM.

Turning to `CN(C)c1cccc(Nc2ccc3c(c2)n(C)c(=O)n3C)c1` [Compound 308, 5-((3-(dimethylamino)phenyl)amino)-1,3-dimethyl-1,3-dihydro-2H-benzo[d]imidazol-2-one], the EC50 was in the range of 0.1 to 100 nM.

For `CCOc1ccc(Nc2ccc3c(c2)n(C)c(=O)n3C)cc1` [Compound 309, 5-((4-ethoxyphenyl)amino)-1,3-dimethyl-1,3-dihydro-2H-benzo[d]imidazol-2-one], the EC50 is 0.1 to 100 nM.

Consider `Cn1c(=O)n(C)c2cc(Nc3ccc4nccn4c3)ccc21` [Compound 310, 5-(imidazo[1,2-a]pyridin-6-ylamino)-1,3-dimethyl-1,3-dihydro-2H-benzo[d]imidazol-2-one], for which the EC50 was 0.1 to 100 nM.

Take `CC1CCN(c2ccc(Nc3ccc4c(c3)C(C)(C)CN4C)cc2)CC1` [Compound 311, 1,3,3-trimethyl-N-(4-(4-methylpiperidin-1-yl)phenyl)indolin-5-amine]: the EC50 fell in the range of 0.1 to 100 nM.

For `COc1cc(Nc2ccc3c(c2)n(C)c(=O)n3C)cc(OC)c1OC` [Compound 312, 1,3-dimethyl-5-((3,4,5-trimethoxyphenyl)amino)-1,3-dihydro-2H-benzo[d]imidazol-2-one], the EC50 lay within 0.1 to 100 nM.

Take `C/N=C1\c2ccc(Nc3ccc(N4CCC(C(F)(F)F)CC4)cc3)cc2CN1C` [Compound 313, 2-methyl-1-(methylimino)-N-(4-(4-(trifluoromethyl)piperidin-1-yl)phenyl)isoindolin-5-amine]: the EC50 fell in the range of 0.1 to 100 nM.

As to `Cn1nnc2ccc(Nc3ccc(N4CCC(C(F)(F)F)CC4)cc3)cc21` [Compound 314, 1-methyl-N-(4-(4-(trifluoromethyl)piperidin-1-yl)phenyl)-1H-benzo[d][1,2,3]triazol-6-amine], the EC50 fell in the range of 0.1 to 100 nM.

Turning to `Cn1c(=O)oc2cc(Nc3ccc(N4C[C@H]5CC[C@@H]4C5)cc3)ccc21` [Compound 315, 6-((4-((1R,4S)-2-azabicyclo[2.2.1]heptan-2-yl)phenyl)amino)-3-methylbenzo[d] oxazol-2(3H)-one], the EC50 was 0.1 to 100 nM.

On to `Cn1c(=O)oc2cc(Nc3ccc(N4CC5(CCCC5)C4)cc3)ccc21` [Compound 316, 6-((4-(2-azaspiro[3.4]octan-2-yl)phenyl)amino)-3-methy/benzo[d]oxazol-2′3H-one], for which the EC50 lay in the range of 0.1 to 100 nM.

Consider `CC1CN(c2ccc(Nc3ccc4c(c3)oc(=O)n4C)cc2)CC(C)O1` (centres unmarked) [Compound 317, 6-((4-(2,6-dimethylmorpholino)phenyl)amino)-3-methylbenzo[d]oxazol-2(3H)-one], for which the concentration giving a half-maximal response (EC50) lay in the range of 0.1 to 100 nM.

Turning to `COCCOc1ccc(Nc2ccc3c(c2)n(C)c(=O)n3C)cc1` [Compound 318, 5-((4-(2-methoxyethoxy)phenyl)amino)-1,3-dimethyl-1,3-dihydro-2H-benzo[d] imidazol-2-one], the EC50 fell in the range of 0.1 to 100 nM.

Take `COc1ncc(Nc2ccc3c(c2)n(C)c(=O)n3C)cn1` [Compound 319, 5-((2-methoxypyrimidin-5-yl)amino)-1,3-dimethyl-1,3-dihydro-2H-benzo[d] imidazole-2-one]: the EC50 was 0.1 to 100 nM.

As for `COc1ccc(Nc2ccc3c(c2)n(C)c(=O)n3C)cn1` [Compound 320, 5-((6-methoxypyridin-3-yl)amino)-1,3-dimethyl-1,3-dihydro-2H-benzo[d] imidazol-2-one], the EC50 was in the range of 0.1 to 100 nM.

As to `CC1CCN(c2ccc(Nc3ccc4nnn(C)c4c3)cc2)CC1` [Compound 321, 1-methyl-N-(4-(4-methylpiperidin-1-yl)phenyl)-1H-benzo[d][1,2,3]triazol-6-amine], the EC50 lay in the range of 0.1 to 100 nM.

Consider `Cc1nc2ccc(Nc3ccc(N4CCC(C(F)(F)F)CC4)cc3)cc2o1` [Compound 323, 2-methyl-N-(4-(4-(trifluoromethyl)piperidin-1-yl)phenyl)benzo[d]oxazol-6-amine], for which the EC50 lay in the range of 0.1 to 100 nM.

With `Cn1c(=O)oc2cc(Nc3ccc(N4CC(C)(C)C4)cc3)ccc21` [Compound 324, 6-((4-(3,3-dimethylazetidin-1-yl)phenyl)amino)-3-methylbenzo[d]oxazol-2(3H)-one], the EC50 lay in the range of 0.1 to 100 nM.

Turning to `CC1CCC(C)N1c1ccc(Nc2ccc3c(c2)oc(=O)n3C)cc1` (centres unmarked) [Compound 325, 6-((4-(2,5-dimethylpyrrolidin-1-yl)phenyl)amino)-3-methylbenzo[d]oxazol-2(3H)-one], the EC50 lay in the range of 0.1 to 100 nM.

For `Cc1cc(Nc2ccc(N3CCC(C(F)(F)F)CC3)cc2)cc2c1C(=O)N(C)C2` [Compound 326, 2,7-dimethyl-5-((4-(4-(trifluoromethyl)piperidin-1-yl)phenyl)amino) isoindolin-1-one], the EC50 fell in the range of 0.1 to 100 nM.

`Cn1c(=O)oc2cc(Nc3ccc(N4CC5(CCC5)C4)cc3)ccc21` [Compound 327, 6-((4-(2-azaspiro[3.3]heptan-2-yl)phenyl)amino)-3-methylbenzo[d]oxazol-2(3H)-one]: the concentration for a half-maximal effect (EC50) was in the range of 0.1 to 100 nM.
